Measurements reported in ChEMBL document CHEMBL4507292 (2021).

Legend:
[1] = test system: Tyrosine-protein kinase ABL1 (Homo sapiens), P00519 [Q252H]; conditions: Compound concentration 1000.0 nM
[2] = test system: Tyrosine-protein kinase ABL1 (Homo sapiens), P00519 [Y253F]; conditions: Compound concentration 1000.0 nM
[3] = target: Tyrosine-protein kinase ABL2 (Homo sapiens) (UniProt P42684); conditions: Compound concentration 1000.0 nM
[4] = target: Ankyrin repeat and protein kinase domain-containing protein 1 (Homo sapiens) (UniProt Q8NFD2); conditions: Compound concentration 1000.0 nM
[5] = target: Aurora kinase A (Homo sapiens) (UniProt O14965); conditions: Compound concentration 1000.0 nM
[6] = target: Aurora kinase B (Homo sapiens) (UniProt Q96GD4); conditions: Compound concentration 1000.0 nM
[7] = target: Protein-tyrosine kinase 6 (Homo sapiens) (UniProt Q13882); conditions: Compound concentration 1000.0 nM
[8] = target: Serine/threonine-protein kinase BRSK2 (Homo sapiens) (UniProt Q8IWQ3); conditions: Compound concentration 1000.0 nM
[9] = target: Calcium/calmodulin-dependent protein kinase type II subunit gamma (Homo sapiens) (UniProt Q13555); conditions: Compound concentration 1000.0 nM
[10] = target: Cyclin-dependent kinase 9 (Homo sapiens) (UniProt P50750); conditions: Compound concentration 1000.0 nM
[11] = target: Death-associated protein kinase 1 (Homo sapiens) (UniProt P53355); conditions: Compound concentration 1000.0 nM
[12] = test system: Epidermal growth factor receptor (Homo sapiens), P00533 [G719S]; conditions: Compound concentration 1000.0 nM
[13] = test system: Epidermal growth factor receptor (Homo sapiens), P00533 [UNDEFINED MUTATION]; conditions: Compound concentration 1000.0 nM
[14] = target: Ephrin type-A receptor 4 (Homo sapiens) (UniProt P54764); conditions: Compound concentration 1000.0 nM
[15] = target: Receptor tyrosine-protein kinase erbB-4 (Homo sapiens) (UniProt Q15303); conditions: Compound concentration 1000.0 nM
[16] = test system: Receptor-type tyrosine-protein kinase FLT3 (Homo sapiens), P36888 [D835Y]; conditions: Compound concentration 1000.0 nM
[17] = test system: Receptor-type tyrosine-protein kinase FLT3 (Homo sapiens), P36888 [N841I]; conditions: Compound concentration 1000.0 nM
[18] = target: Vascular endothelial growth factor receptor 3 (Homo sapiens) (UniProt P35916); conditions: Compound concentration 1000.0 nM
[19] = target: Serine/threonine-protein kinase haspin (Homo sapiens) (UniProt Q8TF76); conditions: Compound concentration 1000.0 nM
[20] = target: Mitogen-activated protein kinase kinase kinase 1 (Homo sapiens) (UniProt Q13233); conditions: Compound concentration 1000.0 nM
[21] = target: Dual specificity mitogen-activated protein kinase kinase 1 (Homo sapiens) (UniProt Q02750); conditions: Compound concentration 1000.0 nM
[22] = target: Serine/threonine-protein kinase Nek1 (Homo sapiens) (UniProt Q96PY6); conditions: Compound concentration 1000.0 nM
[23] = target: Serine/threonine-protein kinase Nek10 (Homo sapiens) (UniProt Q6ZWH5); conditions: Compound concentration 1000.0 nM
[24] = target: Serine/threonine-protein kinase Nek2 (Homo sapiens) (UniProt P51955); conditions: Compound concentration 1000.0 nM
[25] = target: Cyclin-dependent kinase 16 (Homo sapiens) (UniProt Q00536); conditions: Compound concentration 1000.0 nM
[26] = target: Phosphatidylinositol 4,5-bisphosphate 3-kinase catalytic subunit gamma isoform (Homo sapiens) (UniProt P48736); conditions: Compound concentration 1000.0 nM
[27] = target: Proto-oncogene tyrosine-protein kinase receptor Ret (Homo sapiens) (UniProt P07949); conditions: Compound concentration 1000.0 nM
[28] = target: Ribosomal protein S6 kinase alpha-4 (Homo sapiens) (UniProt O75676); conditions: Compound concentration 1000.0 nM
[29] = target: Ribosomal protein S6 kinase alpha-1 (Homo sapiens) (UniProt Q15418); conditions: Compound concentration 1000.0 nM
[30] = target: Ribosomal protein S6 kinase alpha-3 (Homo sapiens) (UniProt P51812); conditions: Compound concentration 1000.0 nM
[31] = target: Ribosomal protein S6 kinase beta-1 (Homo sapiens) (UniProt P23443); conditions: Compound concentration 1000.0 nM
[32] = target: Serine/threonine-protein kinase Sgk1 (Homo sapiens) (UniProt O00141); conditions: Compound concentration 1000.0 nM
[33] = target: Dual specificity testis-specific protein kinase 1 (Homo sapiens) (UniProt Q15569); conditions: Compound concentration 1000.0 nM
[34] = target: Testis-specific serine/threonine-protein kinase 1 (Homo sapiens) (UniProt Q9BXA7); conditions: Compound concentration 1000.0 nM
[35] = target: Dual specificity protein kinase TTK (Homo sapiens) (UniProt P33981); conditions: Compound concentration 1000.0 nM
[36] = target: Serine/threonine-protein kinase 32A (Homo sapiens) (UniProt Q8WU08); conditions: Compound concentration 1000.0 nM
[37] = target: Mitogen-activated protein kinase kinase kinase 19 (Homo sapiens) (UniProt Q56UN5); conditions: Compound concentration 1000.0 nM
[38] = target: 5-hydroxytryptamine receptor 1D (Homo sapiens) (UniProt P28221); conditions: Compound concentration 10.0 uM
[39] = target: T1, Alpha-2A adrenergic receptor (Homo sapiens) (UniProt P08913); conditions: Compound concentration 10.0 uM
T1 sequence (whole entry): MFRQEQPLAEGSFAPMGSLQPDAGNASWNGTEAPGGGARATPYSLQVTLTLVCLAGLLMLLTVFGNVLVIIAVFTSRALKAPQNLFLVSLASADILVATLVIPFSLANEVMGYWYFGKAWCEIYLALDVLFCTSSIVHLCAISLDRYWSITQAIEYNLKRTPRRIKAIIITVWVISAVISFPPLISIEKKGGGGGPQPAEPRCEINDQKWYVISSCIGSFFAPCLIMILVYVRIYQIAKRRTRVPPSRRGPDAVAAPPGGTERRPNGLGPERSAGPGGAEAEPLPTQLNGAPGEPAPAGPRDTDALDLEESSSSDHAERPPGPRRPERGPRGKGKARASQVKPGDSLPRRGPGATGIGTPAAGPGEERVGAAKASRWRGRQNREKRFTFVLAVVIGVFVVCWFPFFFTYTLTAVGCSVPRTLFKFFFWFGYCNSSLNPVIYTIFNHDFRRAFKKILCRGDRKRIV

Sequence of Testis-specific serine/threonine-protein kinase 1 (Homo sapiens) (Q9BXA7 whole entry): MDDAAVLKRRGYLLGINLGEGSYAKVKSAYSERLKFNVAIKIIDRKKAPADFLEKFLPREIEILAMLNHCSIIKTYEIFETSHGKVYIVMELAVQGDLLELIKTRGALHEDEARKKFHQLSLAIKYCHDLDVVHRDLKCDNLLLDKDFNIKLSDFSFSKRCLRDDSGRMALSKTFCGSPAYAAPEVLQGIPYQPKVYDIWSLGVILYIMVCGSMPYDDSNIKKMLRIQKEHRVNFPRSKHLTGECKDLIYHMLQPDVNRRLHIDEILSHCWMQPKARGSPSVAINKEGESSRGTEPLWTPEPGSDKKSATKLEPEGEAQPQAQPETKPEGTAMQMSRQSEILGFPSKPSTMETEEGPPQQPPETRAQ
Sequence of Ribosomal protein S6 kinase alpha-1 (Homo sapiens) (Q15418 whole entry): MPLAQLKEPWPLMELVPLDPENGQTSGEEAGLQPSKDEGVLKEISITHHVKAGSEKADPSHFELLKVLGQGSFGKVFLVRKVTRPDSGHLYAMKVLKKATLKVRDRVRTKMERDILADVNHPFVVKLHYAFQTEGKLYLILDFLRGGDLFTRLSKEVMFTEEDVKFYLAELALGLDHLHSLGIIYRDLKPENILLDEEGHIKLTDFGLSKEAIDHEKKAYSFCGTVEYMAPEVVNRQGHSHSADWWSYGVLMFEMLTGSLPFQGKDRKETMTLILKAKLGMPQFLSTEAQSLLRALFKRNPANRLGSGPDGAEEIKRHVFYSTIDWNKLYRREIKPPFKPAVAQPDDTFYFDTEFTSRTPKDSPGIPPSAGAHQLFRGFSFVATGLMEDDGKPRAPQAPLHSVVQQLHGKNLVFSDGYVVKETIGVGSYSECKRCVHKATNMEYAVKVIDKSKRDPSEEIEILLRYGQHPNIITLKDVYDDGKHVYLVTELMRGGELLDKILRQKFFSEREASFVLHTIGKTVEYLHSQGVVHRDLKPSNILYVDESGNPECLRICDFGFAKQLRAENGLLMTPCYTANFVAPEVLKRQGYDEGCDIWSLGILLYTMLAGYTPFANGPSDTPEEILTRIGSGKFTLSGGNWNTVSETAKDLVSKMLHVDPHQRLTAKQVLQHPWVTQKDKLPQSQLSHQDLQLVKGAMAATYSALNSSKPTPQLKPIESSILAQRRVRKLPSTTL
Sequence of Dual specificity testis-specific protein kinase 1 (Homo sapiens) (Q15569 whole entry, looked up): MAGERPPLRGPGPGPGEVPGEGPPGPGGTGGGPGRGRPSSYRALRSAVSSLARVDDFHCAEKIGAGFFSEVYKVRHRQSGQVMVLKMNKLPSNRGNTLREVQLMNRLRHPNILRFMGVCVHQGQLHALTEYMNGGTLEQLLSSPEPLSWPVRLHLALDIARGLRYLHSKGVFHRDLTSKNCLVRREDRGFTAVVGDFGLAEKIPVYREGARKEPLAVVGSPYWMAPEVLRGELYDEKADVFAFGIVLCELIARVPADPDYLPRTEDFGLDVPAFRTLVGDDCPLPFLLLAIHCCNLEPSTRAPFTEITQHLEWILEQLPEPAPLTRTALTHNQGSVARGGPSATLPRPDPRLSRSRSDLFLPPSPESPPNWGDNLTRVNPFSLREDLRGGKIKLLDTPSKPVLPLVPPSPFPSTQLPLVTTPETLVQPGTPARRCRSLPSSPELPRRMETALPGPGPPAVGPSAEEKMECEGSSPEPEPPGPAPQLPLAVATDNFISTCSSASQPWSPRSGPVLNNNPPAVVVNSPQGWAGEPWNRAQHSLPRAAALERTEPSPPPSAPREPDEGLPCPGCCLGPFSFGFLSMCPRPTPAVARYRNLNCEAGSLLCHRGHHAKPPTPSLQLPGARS
Sequence of Dual specificity mitogen-activated protein kinase kinase 1 (Homo sapiens) (Q02750 whole entry): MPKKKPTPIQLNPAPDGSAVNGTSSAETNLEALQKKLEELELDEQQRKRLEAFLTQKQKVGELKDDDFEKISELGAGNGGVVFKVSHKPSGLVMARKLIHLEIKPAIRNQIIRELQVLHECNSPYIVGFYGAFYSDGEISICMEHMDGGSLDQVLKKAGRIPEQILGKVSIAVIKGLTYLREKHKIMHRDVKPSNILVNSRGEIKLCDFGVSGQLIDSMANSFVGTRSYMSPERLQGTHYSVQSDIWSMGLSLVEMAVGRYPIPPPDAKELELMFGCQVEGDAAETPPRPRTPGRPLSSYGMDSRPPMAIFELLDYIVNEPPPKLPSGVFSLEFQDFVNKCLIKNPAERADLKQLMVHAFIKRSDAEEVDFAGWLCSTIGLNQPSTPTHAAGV
Sequence of Cyclin-dependent kinase 16 (Homo sapiens) (Q00536 whole entry, canonical isoform): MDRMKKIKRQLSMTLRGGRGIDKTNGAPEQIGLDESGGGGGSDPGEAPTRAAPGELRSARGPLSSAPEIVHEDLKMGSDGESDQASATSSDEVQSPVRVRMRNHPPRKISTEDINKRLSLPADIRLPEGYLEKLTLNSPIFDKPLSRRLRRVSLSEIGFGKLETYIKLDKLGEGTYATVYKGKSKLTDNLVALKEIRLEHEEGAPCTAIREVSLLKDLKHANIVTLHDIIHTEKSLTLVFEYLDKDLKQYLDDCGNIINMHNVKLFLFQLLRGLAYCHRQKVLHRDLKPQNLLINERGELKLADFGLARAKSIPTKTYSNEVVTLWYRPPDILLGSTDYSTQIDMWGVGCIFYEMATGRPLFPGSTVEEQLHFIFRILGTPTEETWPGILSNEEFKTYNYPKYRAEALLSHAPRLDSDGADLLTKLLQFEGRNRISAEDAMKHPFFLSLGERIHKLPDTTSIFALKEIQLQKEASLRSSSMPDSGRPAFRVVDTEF
Sequence of 5-hydroxytryptamine receptor 1D (Homo sapiens) (P28221 whole entry): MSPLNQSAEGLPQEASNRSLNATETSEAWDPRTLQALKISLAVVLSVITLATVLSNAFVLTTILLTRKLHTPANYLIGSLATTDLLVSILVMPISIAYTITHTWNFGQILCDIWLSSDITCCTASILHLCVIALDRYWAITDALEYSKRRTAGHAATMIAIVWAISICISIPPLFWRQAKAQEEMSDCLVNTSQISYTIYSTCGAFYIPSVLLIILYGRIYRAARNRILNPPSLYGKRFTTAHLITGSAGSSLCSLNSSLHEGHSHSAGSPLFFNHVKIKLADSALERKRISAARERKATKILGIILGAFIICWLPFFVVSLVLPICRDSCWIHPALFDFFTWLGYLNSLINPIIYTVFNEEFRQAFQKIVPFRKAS
Sequence of Mitogen-activated protein kinase kinase kinase 19 (Homo sapiens) (Q56UN5 whole entry): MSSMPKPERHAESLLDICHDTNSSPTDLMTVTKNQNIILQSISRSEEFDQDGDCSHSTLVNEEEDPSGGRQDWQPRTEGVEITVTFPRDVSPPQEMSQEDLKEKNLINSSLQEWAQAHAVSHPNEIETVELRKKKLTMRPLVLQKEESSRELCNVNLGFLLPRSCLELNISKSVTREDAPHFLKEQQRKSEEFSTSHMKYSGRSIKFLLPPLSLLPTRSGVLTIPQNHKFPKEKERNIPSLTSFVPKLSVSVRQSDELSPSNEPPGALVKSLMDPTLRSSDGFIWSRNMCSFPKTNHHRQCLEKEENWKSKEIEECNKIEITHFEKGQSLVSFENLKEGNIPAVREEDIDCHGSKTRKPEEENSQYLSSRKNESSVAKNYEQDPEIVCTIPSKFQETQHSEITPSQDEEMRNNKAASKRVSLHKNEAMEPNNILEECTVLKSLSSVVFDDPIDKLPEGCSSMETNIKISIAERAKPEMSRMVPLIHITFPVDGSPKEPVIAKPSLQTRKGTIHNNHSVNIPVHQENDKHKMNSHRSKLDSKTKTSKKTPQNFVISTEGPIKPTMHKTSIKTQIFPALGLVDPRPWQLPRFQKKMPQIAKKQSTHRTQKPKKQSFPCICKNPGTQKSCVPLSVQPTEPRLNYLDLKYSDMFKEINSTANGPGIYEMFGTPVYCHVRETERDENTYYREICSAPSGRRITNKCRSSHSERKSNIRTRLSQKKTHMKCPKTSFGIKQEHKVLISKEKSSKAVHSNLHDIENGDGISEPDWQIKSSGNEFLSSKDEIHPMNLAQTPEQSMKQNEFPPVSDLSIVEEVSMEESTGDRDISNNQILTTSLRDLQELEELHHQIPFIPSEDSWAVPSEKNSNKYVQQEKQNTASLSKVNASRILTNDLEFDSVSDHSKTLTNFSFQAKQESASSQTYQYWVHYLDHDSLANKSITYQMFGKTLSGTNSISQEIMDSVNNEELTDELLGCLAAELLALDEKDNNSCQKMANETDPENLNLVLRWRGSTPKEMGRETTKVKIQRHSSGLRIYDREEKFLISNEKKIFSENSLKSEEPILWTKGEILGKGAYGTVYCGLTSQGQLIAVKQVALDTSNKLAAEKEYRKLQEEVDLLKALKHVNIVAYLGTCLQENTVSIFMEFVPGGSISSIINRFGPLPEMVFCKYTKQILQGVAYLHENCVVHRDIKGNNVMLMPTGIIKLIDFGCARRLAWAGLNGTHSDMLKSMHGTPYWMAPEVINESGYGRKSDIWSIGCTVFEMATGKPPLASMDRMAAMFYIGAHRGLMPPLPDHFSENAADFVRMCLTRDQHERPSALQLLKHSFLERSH
Sequence of Protein-tyrosine kinase 6 (Homo sapiens) (Q13882 whole entry, looked up): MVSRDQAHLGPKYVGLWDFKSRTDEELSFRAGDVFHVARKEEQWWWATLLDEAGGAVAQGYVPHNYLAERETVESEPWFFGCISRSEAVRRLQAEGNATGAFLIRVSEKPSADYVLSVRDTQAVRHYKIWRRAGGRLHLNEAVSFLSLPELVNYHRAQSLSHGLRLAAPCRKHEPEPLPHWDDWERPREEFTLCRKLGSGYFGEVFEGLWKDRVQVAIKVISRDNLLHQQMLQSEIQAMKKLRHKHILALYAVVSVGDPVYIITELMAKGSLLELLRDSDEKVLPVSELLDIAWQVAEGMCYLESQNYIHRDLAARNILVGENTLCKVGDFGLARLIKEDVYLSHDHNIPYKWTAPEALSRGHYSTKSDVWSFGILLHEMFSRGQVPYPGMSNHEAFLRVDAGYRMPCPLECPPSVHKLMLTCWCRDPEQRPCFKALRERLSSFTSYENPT

Cc1c(C(=O)O)cc(-c2ccc(C3CCNCC3)cc2)c2ccc(-c3ccc(C(F)(F)F)cc3)cc12 [PPTN-NC]
inactive: residual activity [1] 100% | residual activity [2] 87% | residual activity [3] 100% | residual activity [4] 100% | residual activity [5] 100% | residual activity [6] 100% | residual activity [7] 100% | residual activity [8] 100% | residual activity [9] 100% | residual activity [10] 100% | residual activity [11] 100% | residual activity [12] 94% | residual activity [13] 100% | residual activity [14] 100% | residual activity [15] 100% | residual activity [16] 100% | residual activity [17] 100% | residual activity [18] 100% | residual activity [19] 100% | residual activity [20] 100% | residual activity [21] 100% | residual activity [22] 100% | residual activity [23] 100% | residual activity [24] 100% | residual activity [25] 100% | residual activity [26] 100% | residual activity [27] 99% | residual activity [28] 100% | residual activity [29] 100% | residual activity [30] 100% | residual activity [31] 100% | residual activity [32] 100% | residual activity [33] 93% | residual activity [34] 100% | residual activity [35] 100% | residual activity [36] 89% | residual activity [37] 100% | inhibition [38] 30.1% | inhibition [39] 34.8%

O=C(O)c1cc(-c2ccc(C3CCNCC3)cc2)c2ccc(-c3ccc(C(F)(F)F)cc3)cc2c1 [PPTN]
inactive: residual activity [1] 90% | residual activity [2] 73% | residual activity [3] 100% | residual activity [4] 100% | residual activity [5] 100% | residual activity [6] 100% | residual activity [7] 100% | residual activity [8] 100% | residual activity [9] 100% | residual activity [10] 100% | residual activity [11] 100% | residual activity [12] 100% | residual activity [13] 100% | residual activity [14] 100% | residual activity [15] 100% | residual activity [16] 100% | residual activity [17] 100% | residual activity [18] 100% | residual activity [19] 100% | residual activity [20] 100% | residual activity [21] 100% | residual activity [22] 100% | residual activity [23] 100% | residual activity [24] 100% | residual activity [25] 100% | residual activity [26] 92% | residual activity [27] 90% | residual activity [28] 100% | residual activity [29] 100% | residual activity [30] 100% | residual activity [31] 100% | residual activity [32] 100% | residual activity [33] 100% | residual activity [34] 100% | residual activity [35] 100% | residual activity [36] 100% | residual activity [37] 100% | inhibition [38] 33.6% | inhibition [39] 38.2%
